# Data published in patent publication US7915297B2, “Isoxazole derivatives and use thereof” (SK Holdings Co., Ltd., priority 2005, dated 2011).
# Experiments:
# [1] = system: ovariectomized ICR mice; experiment: In vivo osteoporosis assay in ovariectomized ICR mice (DEXA, micro-CT of spine L3-L6); conditions: for BMD (g/cm^2) Avg. ± SD / BMD Change (%) / Trabeculae volume Change (%) / Trabeculae volume(mm^2) Avg. ± SD: four weeks; for BMD (g/cm^2) Avg. ± SD: spine L3-L6, DEXA; for BMD Change (%) / Trabeculae volume Change (%): Sham = 0.0
# Description: Experimental animals were female ICR mice having body weights of 24-28 g which were about 7 weeks old. In each cage, measuring 40×25×17 cm, 2-3 mice were reared at 22° C., RH 50%.
# Ovariectomy is known as one of the most widely used techniques for inducing osteoporosis. As in postmenopause case, the ovariectomy-operation induce estrogen insufficient, result in decrease of osteogenesis and increase of bone resorption, lead to osteoporosis. Anaesthetized 7-week-old female ICR mice underwent ovariectomies and, immediately after the removal of both ovaries, they were administered with test compounds to determine the preventive and therapeutic effects thereof on osteoporosis.
# 1) Preparation of test material: Predetermined amounts of Derivative (1) were suspended in 0.5% CMC to prepare test materials to be administered. As for the control drug alendronate, 0.17% citric acid was added thereto as a pharmacopoeia to aid in the uptake of the drug.
# 2) Administration period: four weeks
# 3) Administration route and method: test materials were administered in a volume of 10 ml/kg of body weight, measured on the administration day, into seven groups: (1) intact control (ICR mice bred with typical diet, control); (2) ovariectomy control (the abdomen opened and closed without removal of the ovary, Sham); (3) ovariectomy group (ovaries removed, OVX); (4) alendronate-treated group (a dose of 5 mg/kg/day); (5) Derivative (1) 30 mg/kg/day treated group (OVX+Derivative (1) 30 mpk); (6) Derivative (1) 90 mg/kg/day treated group (OVX+Derivative (1) 90 mpk); and (7) Derivative (1) […] treated group (OVX+Derivative (1) 30 mpkW). Groups (1)˜(6) were orally treated five day a week for four weeks while group (7) was treated once a week for four weeks.
# After administration for four weeks, the spine (L3-L6) was analyzed for bone mineral density (BMD) through dual-energy X-ray absorptiometry (DEXA) using a Lunar Pixi #5 instrument. Micro-computed tomography (Micro-CT) was performed to determine the effects of the test materials on bone mass and bone strength and on the tertiary bone mass of the spine (L3-L6).
# [2] = system: Wnt/β-catenin signaling (β-catenin activity) in SW480 cell line; experiment: Cell-based Wnt agonist screening, TCF luciferase reporter, SW480 (TCF-FL); set-up: species or system human; conditions: Homo sapiens, % of LiCl (20 mM), 24 h, read-out: Max. Activity (%); for Emax at 120 µM: Con. 120 μM; for Emax at 30 µM: Con. 30 μM
# Procedure, shortened: (§1)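 HEK293 and SW480 lines stably carried a 5X TCF firefly luciferase reporter under G418 selection. Cells (8,000–15,000/well, RPMI 1640 with 5% FBS) were grown 24 h, then treated with compound for 24 h. Luciferase activity was expressed as percent of the 20 mM LiCl positive control.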
# [3] = system: Wnt/β-catenin signaling (β-catenin activity) in HEK293 cell line; experiment: Cell-based Wnt agonist screening, TCF luciferase reporter, HEK293 (TCF-FL); set-up: species or system human; conditions: Homo sapiens, HEK293, 24 h, % of LiCl (20 mM), 24 h, read-out: Max. Activity (%); for Emax at 60 µM: Conc. 60 μM; for Emax at 30 µM: Conc. 30 μM; for Emax at 120 µM: Conc. 120 μM
# Procedure, shortened: as §1
# [4] = system: ST-2, a murine bone marrow stromal T cell; experiment: Differentiation of ST2 cell line into osteoblasts, alkaline phosphatase activity; type: cell-based; conditions: Mus musculus, 96 h; ST-2 cells, 11 μM compound, 4 days; control treated only with ascorbic acid and β-glycerolphosphate = 100; read-out: ALP Activity (% Control)
# Procedure, shortened: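 Murine ST-2 stromal cells in MEM with 5% FBS were treated with compounds (11 μM, 4 days) in medium with 50 μg/ml ascorbic acid and 5 mM β-glycerolphosphate. ALP activity read by luminescence kit, expressed as % of ascorbate/β-glycerolphosphate-only control.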
# [5] = Group 5 (OVX + D30): 30 mg/kg/day, oral
# [6] = Group 6 (OVX + D90): 90 mg/kg/day, oral
# [7] = Group 7 (OVX + W30): 90 mg/kg/week (30 mpkW), once a week
# [8] = Group 4 (OVX + AD): alendronate 5 mg/kg/day, oral
SMILES,Emax at 120 µM [2] [%],Emax at 30 µM [2] [%],activity at 11 µM [4] [%],Emax at 30 µM [3] [%],Emax at 120 µM [3] [%],also measured
"O=C(NCCCn1ccnc1)c1cc(-c2ccco2)on1 [Derivative (1), 5-furan-2-yl-isoxazole-3-carboxylic acid (3-imidazol-1-yl-propyl)-amide]",957,–,–,–,–,"BMD (g/cm^2) Avg. ± SD ([1]; Group 5 (OVX + D30): 30 mg/kg/day, oral, five day a week): 0.061 ± 0.007 g/cm^2; BMD Change (%) [1, 5]: −11.6%; Trabeculae volume Change (%) [1, 5]: 4.8%; Trabeculae volume(mm^2) Avg. ± SD ([1]; Group 5 (OVX + D30): 30 mg/kg/day, oral, spine L3-L6, micro-CT): 21.7 ± 2.43 mm^2; BMD (g/cm^2) Avg. ± SD ([1]; Group 6 (OVX + D90): 90 mg/kg/day, oral, five day a week): 0.063 ± 0.005 g/cm^2; BMD Change (%) [1, 6]: −8.7%; Trabeculae volume Change (%) [1, 6]: 44.4%; Trabeculae volume(mm^2) Avg. ± SD ([1]; Group 6 (OVX + D90): 90 mg/kg/day, oral, spine L3-L6, micro-CT): 29.9 ± 0.83 mm^2; BMD Change (%) [1, 7]: −15.9%; Trabeculae volume Change (%) [1, 7]: 26.1%; Trabeculae volume(mm^2) Avg. ± SD ([1]; Group 7 (OVX + W30): 90 mg/kg/week (30 mpkW), once a week, micro-CT): 26.1 ± 1.87 mm^2; BMD (g/cm^2) Avg. ± SD [1, 7]: 0.058 ± 0.006 g/cm^2; therapeutic effect on bone mass compared with alendronate ([1]; OVX mice, four weeks administration): exceed that of alendronate; effect on bone mineral density (BMD) versus OVX group ([1]; OVX mice, four weeks administration, DEXA): decrease in bone mineral density to lesser extents compared to the OVX group; effect on bone mass (BV/TV) ([1]; OVX mice, four weeks administration, micro-CT): restrain the decrease of bone mass, but also to increase the bone density to a higher level than before ovariectomy; Emax at 60 µM [3]: 70%"
"O=C(NCCn1ccnc1)c1cc(-c2ccccc2F)on1 [Derivative (85), 5-(2-fluoro-phenyl)-isoxazole-3-carboxylic acid (2-imidazol-1-yl-ethyl)-amide]",–,< 20,640,< 20,–,–
"Cc1nccn1CCNC(=O)c1cc(-c2ccco2)on1 [Derivative (35), 5-furan-2-yl-isoxazole-3-carboxylic acid [2-(2-methyl-imidazol-1-yl)-ethyl]-amide]",130,–,686,–,35,–
"Cc1cncn1CCNC(=O)c1cc(-c2ccco2)on1 [Derivative (36), 5-furan-2-yl-isoxazole-3-carboxylic acid [2-(5-methyl-imidazol-1-yl)-ethyl]-amide]",283,–,396,–,71,–
"COc1ccc(-c2cc(C(=O)NCCc3ccncc3)no2)cc1 [Derivative (102), 5-(4-methoxy-phenyl)-isoxazole-3-carboxylic acid (2-pyridin-4-yl-ethyl)-amide]",73,–,148,–,73,–
"O=C(NCCCn1ccnc1)c1cc(-c2ccc([N+](=O)[O-])cc2)on1 [Derivative (114), 5-(4-nitro-phenyl)-isoxazole-3-carboxylic acid (3-imidazol-1-yl-propyl)-amide]",–,–,339,–,–,Emax at 1 µM ([2]; Con. 1 μM): 31%; Emax at 1 µM ([3]; Conc. 1 μM): 31%
"O=C(NCCCn1cncn1)c1cc(-c2ccc(Cl)cc2)on1 [Derivative (96), 5-(4-chloro-phenyl)-isoxazole-3-carboxylic acid (3-[1,2,4]triazol-1-yl-propyl)-amide]",80,–,97,–,80,–
"O=C(NCCn1cccn1)c1cc(-c2ccc(F)cc2)on1 [Derivative (87), 5-(4-fluoro-phenyl)-isoxazole-3-carboxylic acid (2-pyrazol-1-yl-ethyl)-amide]",–,< 20,428,< 20,–,–
"COc1ccccc1-c1cc(C(=O)NCCc2ccncc2)no1 [Derivative (104), 5-(2-methoxy-phenyl)-isoxazole-3-carboxylic acid (2-pyridin-4-yl-ethyl)-amide]",–,–,103,35,–,Emax at 60 µM ([2]; Con. 60 μM): 884%; Emax at 60 µM [3]: 884%
"O=C(NCCCn1ccnc1)c1cc(-c2ccc(Cl)cc2)on1 [Derivative (98), 5-(4-chloro-phenyl)-isoxazole-3-carboxylic acid (3-imidazol-1-yl-propyl)-amide]",54,–,90,–,54,–
"O=C(NCCn1ccnc1)c1cc(-c2ccc(F)cc2)on1 [Derivative (86), 5-(4-fluoro-phenyl)-isoxazole-3-carboxylic acid (2-imidazol-1-yl-ethyl)-amide]",–,< 20,546,< 20,–,–
"Cc1ccc(CCNC(=O)c2cc(-c3ccco3)on2)cc1 [Derivative (15), 5-furan-2-yl-isoxazole-3-carboxylic acid (2-p-tolyl-ethyl)-amide]",–,< 20,278,< 20,–,–
"NCCCC(O)(P(=O)(O)O)P(=O)(O)O [Alendronate, alendronate, reference compound]",–,–,–,–,–,"BMD (g/cm^2) Avg. ± SD ([1]; Group 4 (OVX + AD): alendronate 5 mg/kg/day, oral, five day a week): 0.066 ± 0.012 g/cm^2; BMD Change (%) [1, 8]: −4.3%; Trabeculae volume Change (%) [1, 8]: −25.1%; Trabeculae volume(mm^2) Avg. ± SD ([1]; Group 4 (OVX + AD): alendronate 5 mg/kg/day, oral, spine L3-L6, micro-CT): 15.5 ± 3.27 mm^2"
